Laboratory results published in US11479551B2, “MTA-cooperative PRMT5 inhibitors” (Mirati Therapeutics, Inc., priority 2019, dated 2022).
Read-outs that look alike come from different tables or passages of the source.

Experiments:
[1] = biological target: PRMT5/MEP50 complex (Homo sapiens (Human), UniProt O14744); assay: PRMT5:MEP50 HotSpot Assay (full-length histone H2A substrate, plus and minus MTA); format: biochemical
Outline: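 Tritium incorporated into recombinant full-length histone H2A was counted by scintillation after stopped reactions were captured on filter paper.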

[2] = system: HCT116 parental cells; assay: Proliferation assay (CellTiter-Glo, 10 days of treatment), HCT116 parental; format: cell-based; settings: Homo sapiens, HCT-116, 240 h
Outline: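 250 cells seeded in McCoy's 5A with 10% FBS, then given a dose response of PRMT5 inhibitor at 37 °C, 5% CO2 for five days. Cells were split 1:10 on Day 6 into fresh medium with the same compound concentration for 5 more days. Viability read on Day 11 by CellTiter-Glo; IC50 after 10 days of treatment.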

[3] = system: HCT116 homozygous MTAP knockout cells; assay: Proliferation assay (CellTiter-Glo, 10 days of treatment), HCT116 MTAP knockout; format: cell-based; settings: Homo sapiens, HCT-116, 240 h, read-out: Proliferation HCT116MTAP_KO IC50
Outline: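 Viability of the CRISPR/Cas9 homozygous MTAP-knockout HCT116 line was read by CellTiter-Glo after 10 days of PRMT5 inhibitor exposure, with IC50 derived from the dose response. Compound was given the day after seeding and renewed at an identical concentration when cells were split 1:10 on day 6.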

[4] = system: PRMT5-dependent Symmetric Di-methyl Arginine signal in HCT116 parental cells; assay: SYM11 In-Cell Western, HCT116 parental; format: cell-based; settings: Homo sapiens, HCT-116, 96 h, 4 days of treatment, SYM11/DRAQ5 ratio
Outline: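 HCT116 parental cells (2,000/well, McCoy's 5A with 10% FBS) dosed with PRMT5 inhibitors for four days at 37° C. Fixed in paraformaldehyde and methanol, then stained with SYM11 antibody and DRAQ5.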

[5] = system: PRMT5-dependent Symmetric Di-methyl Arginine signal in HCT116 homozygous MTAP knockout cells; assay: SYM11 In-Cell Western, HCT116 MTAP knockout; format: cell-based; settings: Homo sapiens, HCT-116, 96 h, HCT116 homozygous MTAP knockout cells, 4 days of treatment, SYM11/DRAQ5 ratio; read-out: In-cell-Western (SYM11) HCT116 MTAP_KO IC50
[6] = IC50 + 2 μM MTA, in the presence of 2 μM MTA

Sequence of PRMT5/MEP50 complex (O14744 2-637): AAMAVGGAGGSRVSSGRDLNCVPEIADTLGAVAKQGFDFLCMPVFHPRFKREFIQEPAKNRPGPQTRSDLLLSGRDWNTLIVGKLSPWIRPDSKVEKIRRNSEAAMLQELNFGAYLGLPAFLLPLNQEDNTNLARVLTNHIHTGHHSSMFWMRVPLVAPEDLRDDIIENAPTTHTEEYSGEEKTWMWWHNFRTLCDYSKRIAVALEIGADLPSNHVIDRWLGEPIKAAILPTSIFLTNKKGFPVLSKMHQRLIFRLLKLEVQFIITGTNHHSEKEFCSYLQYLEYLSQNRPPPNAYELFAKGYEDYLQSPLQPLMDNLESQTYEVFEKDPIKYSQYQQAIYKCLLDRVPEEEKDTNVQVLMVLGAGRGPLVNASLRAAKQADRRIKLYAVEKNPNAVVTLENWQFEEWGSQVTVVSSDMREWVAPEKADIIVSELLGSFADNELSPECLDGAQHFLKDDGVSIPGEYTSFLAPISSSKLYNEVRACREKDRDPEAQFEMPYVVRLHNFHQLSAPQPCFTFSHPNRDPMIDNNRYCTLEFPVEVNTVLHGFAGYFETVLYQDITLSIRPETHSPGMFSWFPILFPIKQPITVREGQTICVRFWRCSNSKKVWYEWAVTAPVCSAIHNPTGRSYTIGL
Sequence of PRMT5/MEP50 complex (Q9BQA1 2-342 partner): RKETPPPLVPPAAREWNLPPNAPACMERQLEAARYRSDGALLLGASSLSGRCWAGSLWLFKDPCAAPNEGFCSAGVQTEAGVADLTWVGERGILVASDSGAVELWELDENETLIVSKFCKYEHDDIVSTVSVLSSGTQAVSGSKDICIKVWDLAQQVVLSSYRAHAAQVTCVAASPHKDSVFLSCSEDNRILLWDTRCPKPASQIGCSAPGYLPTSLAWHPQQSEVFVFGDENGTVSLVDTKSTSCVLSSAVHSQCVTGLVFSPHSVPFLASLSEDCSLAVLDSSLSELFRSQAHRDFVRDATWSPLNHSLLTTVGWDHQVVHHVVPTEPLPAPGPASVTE

CCOc1ccc(-c2c(-c3ccc4c(=O)[nH]nc(CN)c4c3)cnn2C)cc1C#N [Example 4-145, 5-(4-(4-(aminomethyl)-1-oxo-1,2-dihydrophthalazin-6-yl)-1-methyl-1H-pyrazol-5-yl)-2-ethoxybenzonitrile]
IC50 [1, 6]: 873 nM | IC50 [2]: 3770 nM | IC50 [3]: 2160 nM | IC50 [4]: 5490 nM | IC50 [5]: 190 nM

CCOc1cccc(-c2c(-c3ccc4c(=O)[nH]nc(CN)c4c3)cnn2C)c1C#N [Example 4-146, 2-(4-(4-(aminomethyl)-1-oxo-1,2-dihydrophthalazin-6-yl)-1-methyl-1H-pyrazol-5-yl)-6-ethoxybenzonitrile]
IC50 [1, 6]: 569 nM | IC50 [2]: > 10000 nM | IC50 [3]: 261 nM | IC50 [4]: 6690 nM | IC50 [5]: 40 nM

Cn1ncc(-c2ccc3c(=O)[nH]nc(CN)c3c2)c1-c1ccc2ccccc2c1C#N [Example 4-147, 2-(4-(4-(aminomethyl)-1-oxo-1,2-dihydrophthalazin-6-yl)-1-methyl-1H-pyrazol-5-yl)-1-naphthonitrile]
IC50 [1, 6]: 43 nM | IC50 ([1]; in the absence of MTA, read-out: IC50): 280 nM | IC50 [2]: 1910 nM | IC50 [3]: 50 nM | IC50 [4]: 1260 nM | IC50 [5]: 11 nM

Cn1ncc(-c2ccc3c(=O)[nH]nc(CN)c3c2)c1-c1ccc(Cl)c(Cl)c1C#N [Example 4-148, 6-(4-(4-(aminomethyl)-1-oxo-1,2-dihydrophthalazin-6-yl)-1-methyl-1H-pyrazol-5-yl)-2,3-dichlorobenzonitrile]
IC50 [1, 6]: 229 nM | IC50 [2]: 7750 nM | IC50 [3]: 307 nM | IC50 [4]: 8550 nM | IC50 [5]: 30 nM

Cn1ncc(-c2ccc3c(=O)[nH]nc(CN)c3c2)c1-c1ccc2ncccc2c1C#N [Example 4-149, 6-(4-(4-(aminomethyl)-1-oxo-1,2-dihydrophthalazin-6-yl)-1-methyl-1H-pyrazol-5-yl)quinoline-5-carbonitrile]
IC50 [1, 6]: 282 nM | IC50 [2]: > 10000 nM | IC50 [3]: 359 nM | IC50 [4]: 6350 nM | IC50 [5]: 135 nM

Cc1cc(Cl)c(C#N)c(-c2c(-c3ccc4c(=O)[nH]nc(CN)c4c3)cnn2C)c1 [Example 4-150, 2-(4-(4-(aminomethyl)-1-oxo-1,2-dihydrophthalazin-6-yl)-1-methyl-1H-pyrazol-5-yl)-6-chloro-4-methylbenzonitrile]
IC50 [1, 6]: 673 nM | IC50 [2]: > 10000 nM | IC50 [3]: 661 nM | IC50 [4]: 8390 nM | IC50 [5]: 18 nM

Cc1ccc(-c2c(-c3ccc4c(=O)[nH]nc(CN)c4c3)cnn2C)c(C#N)c1Cl [Example 4-151, 2-(4-(4-(aminomethyl)-1-oxo-1,2-dihydrophthalazin-6-yl)-1-methyl-1H-pyrazol-5-yl)-6-chloro-5-methylbenzonitrile]
IC50 [1, 6]: 606 nM | IC50 [2]: > 10000 nM | IC50 [3]: 504 nM | IC50 [4]: 5810 nM | IC50 [5]: 51 nM

COc1ccc(-c2c(-c3ccc4c(=O)[nH]nc(CN)c4c3)cnn2C)c(C#N)c1 [Example 4-160, 2-(4-(4-(aminomethyl)-1-oxo-1,2-dihydrophthalazin-6-yl)-1-methyl-1H-pyrazol-5-yl)-5-methoxybenzonitrile]
IC50 [1, 6]: 1110 nM | IC50 [2]: 7700 nM | IC50 [3]: 2030 nM | IC50 [4]: > 10000 nM | IC50 [5]: 944 nM

Cn1ncc(-c2ccc3c(=O)[nH]nc(CN)c3c2)c1-c1cc(C2CC2)ccc1C#N [Example 4-161, 2-(4-(4-(aminomethyl)-1-oxo-1,2-dihydrophthalazin-6-yl)-1-methyl-1H-pyrazol-5-yl)-4-cyclopropylbenzonitrile]
IC50 [1, 6]: 707 nM | IC50 [2]: 6720 nM | IC50 [3]: 617 nM | IC50 [4]: 6560 nM | IC50 [5]: 87.5 nM

N#Cc1ccccc1-c1c[nH]c2ncc(-c3ccc4c(=O)[nH]nc(CN)c4c3)cc12 [Example 4-163, 2-(5-(4-(aminomethyl)-1-oxo-1,2-dihydrophthalazin-6-yl)-1H-pyrrolo[2,3-b]pyridin-3-yl)benzonitrile]
IC50 [1, 6]: 3820 nM | IC50 [2]: > 10000 nM | IC50 [3]: > 10000 nM | IC50 [4]: > 3330 nM | IC50 [5]: > 3330 nM

Cn1ncc(-c2ccc3c(=O)[nH]nc(CN)c3c2)c1-c1cc(Cl)c(Cl)cc1C#N [Example 4-164, 2-(4-(4-(aminomethyl)-1-oxo-1,2-dihydrophthalazin-6-yl)-1-methyl-1H-pyrazol-5-yl)-4,5-dichlorobenzonitrile]
IC50 [1, 6]: 464 nM | IC50 [2]: > 10000 nM | IC50 [3]: 583 nM | IC50 [4]: > 10000 nM | IC50 [5]: 93.3 nM

COc1cc(Cl)c(C#N)c(-c2c(-c3ccc4c(=O)[nH]nc(CN)c4c3)cnn2C)c1 [Example 4-169, 2-(4-(4-(aminomethyl)-1-oxo-1,2-dihydrophthalazin-6-yl)-1-methyl-1H-pyrazol-5-yl)-6-chloro-4-methoxybenzonitrile]
IC50 [1, 6]: 1350 nM | IC50 [2]: > 10000 nM | IC50 [3]: 294 nM | IC50 [4]: 4520 nM | IC50 [5]: 35.5 nM

Cc1cc(Cl)cc(-c2c(-c3ccc4c(=O)[nH]nc(CN)c4c3)cnn2C)c1C#N [Example 4-180, 2-(4-(4-(aminomethyl)-1-oxo-1,2-dihydrophthalazin-6-yl)-1-methyl-1H-pyrazol-5-yl)-4-chloro-6-methylbenzonitrile]
IC50 [1, 6]: 597 nM | IC50 [2]: 121 nM | IC50 [3]: 7110 nM | IC50 [4]: 1410 nM | IC50 [5]: 31.9 nM

Cn1ncc(-c2ccc3c(=O)[nH]nc(CN)c3c2)c1-c1ccc2ccccc2n1 [Example 4-182, 4-(aminomethyl)-6-(1-methyl-5-(quinolin-2-yl)-1H-pyrazol-4-yl)phthalazin-1(2H)-one]
IC50 [1, 6]: 1420 nM | IC50 [2]: 7250 nM | IC50 [3]: 572 nM | IC50 [4]: > 1000 nM | IC50 [5]: 58 nM

Cn1ncc(-c2ccc3c(=O)[nH]nc(CN)c3c2)c1-c1ccc2c(Cl)cccc2c1C#N [Example 4-184, 2-(4-(4-(aminomethyl)-1-oxo-1,2-dihydrophthalazin-6-yl)-1-methyl-1H-pyrazol-5-yl)-5-chloro-1-naphthonitrile]
IC50 [1, 6]: 127 nM | IC50 [2]: 9400 nM | IC50 [3]: 107 nM | IC50 [4]: > 10000 nM | IC50 [5]: 4 nM

Cn1ncc(-c2ccc3c(=O)[nH]nc(CN)c3c2)c1-c1cnn(Cc2ccccc2)c1Cl [Example 4-187, 4-(aminomethyl)-6-(1′-benzyl-5′-chloro-2-methyl-1′H,2H-[3,4′-bipyrazol]-4-yl)phthalazin-1(2H)-one]
IC50 [1, 6]: 239 nM | IC50 [2]: 1360 nM | IC50 [3]: 1900 nM | IC50 [4]: 1000 nM | IC50 [5]: 7 nM

Cn1ncc(-c2ccc3c(=O)[nH]nc(CN)c3c2)c1-c1cc(Cl)cc(OC2CC2)c1C#N [Example 4-188, 2-(4-(4-(aminomethyl)-1-oxo-1,2-dihydrophthalazin-6-yl)-1-methyl-1H-pyrazol-5-yl)-4-chloro-6-cyclopropoxybenzonitrile]
IC50 [1, 6]: 99 nM | IC50 [2]: 904 nM | IC50 [3]: 39 nM | IC50 [4]: > 10000 nM | IC50 [5]: 4 nM

CCCc1cccc(-c2c(-c3ccc4c(=O)[nH]nc(CN)c4c3)cnn2C)c1C#N [Example 4-189, 2-(4-(4-(aminomethyl)-1-oxo-1,2-dihydrophthalazin-6-yl)-1-methyl-1H-pyrazol-5-yl)-6-propylbenzonitrile]
IC50 [1, 6]: 656 nM | IC50 [2]: > 10000 nM | IC50 [3]: 234 nM | IC50 [4]: 1830 nM | IC50 [5]: 31 nM

Cn1ncc(-c2ccc3c(=O)[nH]nc(CN)c3c2)c1-c1ccc2cccnc2c1C#N [Example 4-192, 7-(4-(4-(aminomethyl)-1-oxo-1,2-dihydrophthalazin-6-yl)-1-methyl-1H-pyrazol-5-yl)quinoline-8-carbonitrile]
IC50 [1, 6]: 890 nM | IC50 [2]: > 10000 nM | IC50 [3]: 2140 nM | IC50 [4]: > 10000 nM | IC50 [5]: 256 nM

Cn1ncc(-c2ccc3c(=O)[nH]nc(CN)c3c2)c1-c1ccc2c(c1C#N)CCCO2 [Example 4-196, 6-(4-(4-(aminomethyl)-1-oxo-1,2-dihydrophthalazin-6-yl)-1-methyl-1H-pyrazol-5-yl)chromane-5-carbonitrile]
IC50 [1, 6]: 653 nM | IC50 [2]: 9290 nM | IC50 [3]: 154 nM | IC50 [4]: 1320 nM | IC50 [5]: 11 nM

COc1cnc2ccc(-c3c(-c4ccc5c(=O)[nH]nc(CN)c5c4)cnn3C)c(C#N)c2c1 [Example 4-197, 6-(4-(4-(aminomethyl)-1-oxo-1,2-dihydrophthalazin-6-yl)-1-methyl-1H-pyrazol-5-yl)-3-methoxyquinoline-5-carbonitrile]
IC50 [1, 6]: 719 nM | IC50 [2]: 8570 nM | IC50 [3]: 256 nM | IC50 [4]: > 1000 nM | IC50 [5]: 25 nM

Cn1ncc(-c2ccc3c(=O)[nH]nc(CN)c3c2)c1-c1cccc(C2CC2)c1C#N [Example 4-198, 2-(4-(4-(aminomethyl)-1-oxo-1,2-dihydrophthalazin-6-yl)-1-methyl-1H-pyrazol-5-yl)-6-cyclopropylbenzonitrile]
IC50 [1, 6]: 111 nM | IC50 [2]: 7340 nM | IC50 [3]: 136 nM | IC50 [4]: 1270 nM | IC50 [5]: 21 nM
